In the supplement of paper PMC7840683:
± gives the standard deviation of the averaged measurements.

System: HepaRG
Assay: LDH release cytotoxicity, % of total lysis control; higher = more cytotoxic
Details: 48 h
How it was run: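 HepaRG cells from a single lot were plated on collagen I-coated 96-well plates and treated in duplicate for 48 h with eight-point half-log series of test chemicals, starting at 100 µM, in serum-free induction medium containing 0.5% DMSO. Total lysis wells were given 0.1% Triton X. LDH released into 50 µL of spent medium was measured as resorufin fluorescence with CytoTox-ONE on a Tecan Safire. Percent cytotoxicity was normalized to on-plate vehicle and total lysis controls and then averaged across duplicates.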

Row | SMILES | LDH release cytotoxicity (0.03162 µM) [%] | LDH release cytotoxicity (0.1 µM) [%] | LDH release cytotoxicity (0.3162278 µM) [%] | LDH release cytotoxicity (1 µM) [%] | LDH release cytotoxicity (3.16228 µM) [%] | LDH release cytotoxicity (10 µM) [%] | LDH release cytotoxicity (31.6228 µM) [%] | LDH release cytotoxicity (100 µM) [%] | further results
1 | CCOC(=O)CCC(=O)OCC [Diethyl butanedioate] | -2.6 ± 0.22 | -1.75 ± 0.66 | -2.02 ± 0.1 | -1.99 ± 0.076 | -0.438 ± 0.84 | -0.384 ± 0.28 | 16 ± 3.3 | 83.2 ± 4.8 | 
2 | NC(=O)N1c2ccccc2C=Cc2ccccc21 [Carbamazepine] | -0.712 ± 0.62 | -0.993 ± 0.65 | -1.39 ± 0.76 | -0.89 ± 0.085 | -0.514 ± 0.98 | -1.28 ± 0.24 | -1.043 ± 0.0064 | 0.39 ± 0.34 | 
3 | CCOC(=O)CC(SP(=S)(OC)OC)C(=O)OCC (stereo not drawn) [Malathion] | 0.138 ± 0.34 | -0.944 ± 0.55 | -0.165 ± 0.55 | -0.829 ± 0.26 | -0.0242 ± 0.075 | -0.216 ± 0.19 | -0.432 ± 0.52 | 0.626 ± 0.78 | 
4 | COCC(C)OCC(C)OCC(C)O (stereo not drawn) [Tripropylene glycol monomethyl ether] | -2.65 ± 0.75 | -2.37 ± 0.59 | -2.65 ± 0.77 | -3.43 ± 0.28 | -2.88 ± 0.31 | -1.77 ± 1 | -1.51 ± 0.6 | 0.876 ± 1.4 | 
5 | c1ccc(C2CO2)cc1 (stereo not drawn) [Styrene oxide] | -1.36 ± 0.96 | -1.15 ± 0.44 | -1.2 ± 0.66 | -1.64 ± 0.41 | -1.36 ± 0.55 | -0.823 ± 1.1 | -0.175 ± 0.79 | 0.415 ± 0.9 | 
6 | O=c1n(Cl)c(=O)n(Cl)c(=O)n1Cl [Symclosene] | -1.22 ± 0.62 | -0.82 ± 0.92 | -0.254 ± 0.19 | -0.453 ± 0.22 | 0.284 ± 0.16 | 1.48 ± 1.4 | 0.324 ± 1.8 | 2.44 ± 2 | 
7 | CCN(CC)C(=O)C(C)Oc1cccc2ccccc12 (stereo not drawn) [Napropamide] | -0.242 ± 0.62 | -0.853 ± 0.36 | -1.37 ± 0.22 | -0.226 ± 0.36 | -1.59 ± 1.4 | -0.144 ± 0.53 | 0.0468 ± 0.54 | 1.05 ± 1.2 | 
8 | CCCOc1sc(C(=O)N2CCC(c3cc(CN)ccc3F)CC2)c(C)c1Br [AVE8923] |  |  |  |  |  |  |  |  | LDH release cytotoxicity (0.002846 µM): 0.846 ± 0.37%; LDH release cytotoxicity (0.009 µM): -1.04 ± 0.12%; LDH release cytotoxicity (0.02846 µM): -1.76 ± 0.7%; LDH release cytotoxicity (0.09 µM): -1.75 ± 0.022%; LDH release cytotoxicity (0.284605 µM): -1.48 ± 0.47%; LDH release cytotoxicity (0.9 µM): -1.21 ± 0.12%; LDH release cytotoxicity (2.84605 µM): -0.426 ± 0.15%; LDH release cytotoxicity (9 µM): -0.0454 ± 0.26%
9 | CCSC(=O)N(CC)C1CCCCC1 [Cycloate] | -0.645 ± 0.33 | -0.297 ± 0.34 | -0.471 ± 0.49 | -0.678 ± 0.68 | 0.089 ± 0.45 | 0.922 ± 0.035 | 0.446 ± 0.0094 | 1.91 ± 0.022 | 
10 | Cc1nc(-c2ccc3c(c2)CCN(CCC2CCC(NC(=O)C=Cc4ccc(F)cc4)CC2)CC3)no1 (stereo not drawn) | 0.287 ± 2.3 | -0.381 ± 0.15 | -0.128 ± 1.3 | -0.7917 ± 0.0065 | -0.696 ± 0.47 | -0.292 ± 0.19 | -0.793 ± 0.21 | -0.791 ± 0.54 | 
11 | CCCN(CCC)c1c([N+](=O)[O-])cc(C(F)(F)F)c(N)c1[N+](=O)[O-] [Prodiamine] | -2.33 ± 0.34 | -1.51 ± 1.1 | -2.72 ± 0.29 | -3.4 ± 1.3 | 0.15 ± 1.8 | -1.16 ± 0.42 | -0.459 ± 0.57 | 8.35 ± 0.43 | 
12 | CCN(Cc1cccc(S(=O)(=O)O)c1)c1ccc(C(=C2C=CC(=[N+](CC)Cc3cccc(S(=O)(=O)O)c3)C=C2)c2ccccc2S(=O)(=O)O)cc1 [FD&C Blue No. 1] |  |  |  |  |  |  |  |  | LDH release cytotoxicity (0.0204 µM): -1.63 ± 0.15%; LDH release cytotoxicity (0.0645 µM): -0.475 ± 0.088%; LDH release cytotoxicity (0.203967 µM): -1.54 ± 0.48%; LDH release cytotoxicity (0.645 µM): -1.35 ± 0.38%; LDH release cytotoxicity (2.03967 µM): -1.04 ± 0.34%; LDH release cytotoxicity (6.45 µM): -0.732 ± 0.83%; LDH release cytotoxicity (20.3967 µM): -1.07 ± 0.46%; LDH release cytotoxicity (64.5 µM): -1.76 ± 0.13%
13 | [O-][n+]1ccccc1S [Sodium (2-pyridylthio)-N-oxide] | -1.41 ± 0.6 | -0.73 ± 0.66 | -1.67 ± 0.53 | -0.357 ± 1.3 | -1.51 ± 0.23 | -1.01 ± 0.22 | -0.585 ± 0.072 | 1.58 ± 0.14 | 
14 | C=CCOC(=O)c1ccccc1C(=O)OCC=C [Diallyl phthalate] | 0.139 ± 0.96 | 0.0319 ± 0.41 | -0.423 ± 1.2 | -0.76 ± 0.22 | -0.551 ± 0.21 | 0.184 ± 0.77 | -0.538 ± 0.2 | 0.377 ± 0.38 | 
15 | COC(=O)CCC(=O)OC [Dimethyl succinate] | -1.91 ± 0.15 | -0.897 ± 0.57 | -1.76 ± 0.078 | -2.16 ± 0.17 | -1.84 ± 0.28 | -1.56 ± 0.26 | -1.39 ± 0.24 | 0.319 ± 0.33 | 
16 | CCc1c(C(=O)NN2CCCCC2)nn(-c2ccc(Cl)cc2Cl)c1-c1ccc(Br)cc1 [Surinabant] | -0.47 ± 0.5 | -0.954 ± 0.83 | -1.13 ± 1.6 | -1.44 ± 0.058 | -0.402 ± 0.14 | 2.16 ± 0.28 | 15.8 ± 2.2 | 77.6 ± 2.6 | 
